From patent publication US20070249670A1, “Glycogen Phosphorylase Inhibitor Compounds and Pharmaceutical Compositions Thereof” (SMITHKLINE BEECHAM CORPORATION, priority 2004, published 2007)

Molecular target: T1, human liver glycogen phosphorylase a (HLGPa) (Homo sapiens, UniProt P06737)
T1 construct: creating a full-length cDNA fused at the 5′ end to codons for methionine-glycine-alanine-histidine; 6xHis tag (leader Met-Gly-Ala-His6-Gly-Gly) (N); made in house; host or cells: E. coli (bacterial expression plasmid pTXK1007LTev)
T1 sequence (P06737 2-847 limits assumed): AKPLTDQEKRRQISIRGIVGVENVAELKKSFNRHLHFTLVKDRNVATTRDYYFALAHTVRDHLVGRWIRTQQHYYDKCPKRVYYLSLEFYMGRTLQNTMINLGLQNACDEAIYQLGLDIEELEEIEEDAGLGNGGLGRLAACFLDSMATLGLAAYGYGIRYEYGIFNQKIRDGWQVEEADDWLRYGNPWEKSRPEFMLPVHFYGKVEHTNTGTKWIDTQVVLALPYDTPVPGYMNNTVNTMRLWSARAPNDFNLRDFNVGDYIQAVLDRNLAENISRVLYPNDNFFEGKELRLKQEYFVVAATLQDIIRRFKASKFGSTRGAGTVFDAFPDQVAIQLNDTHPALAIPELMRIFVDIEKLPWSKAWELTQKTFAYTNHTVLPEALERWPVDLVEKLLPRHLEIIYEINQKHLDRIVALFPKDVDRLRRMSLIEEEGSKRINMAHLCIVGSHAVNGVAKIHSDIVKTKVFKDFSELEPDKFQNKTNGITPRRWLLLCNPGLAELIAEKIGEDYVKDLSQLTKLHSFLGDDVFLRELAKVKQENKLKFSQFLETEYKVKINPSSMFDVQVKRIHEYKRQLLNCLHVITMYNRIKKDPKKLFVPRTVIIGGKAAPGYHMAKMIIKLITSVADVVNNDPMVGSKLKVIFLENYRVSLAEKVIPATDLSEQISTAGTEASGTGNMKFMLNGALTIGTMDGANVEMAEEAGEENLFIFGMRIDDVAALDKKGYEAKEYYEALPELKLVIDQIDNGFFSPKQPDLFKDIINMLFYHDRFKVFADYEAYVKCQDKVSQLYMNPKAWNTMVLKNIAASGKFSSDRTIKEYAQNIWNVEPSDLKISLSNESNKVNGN
Assay: Human liver glycogen phosphorylase a enzymatic activity assay (coupled, fluorescent resorufin readout, with and without 10 mM glucose)
Format: biochemical
Conditions: human liver glycogen phosphorylase a enzymatic activity assay

Structure (SMILES)	IC50
CC[C@H](C)[C@H](NC(=O)c1c(NC(=O)Nc2c(C)cccc2C)sc2c1CCCC2)C(=O)O [Example 126, N-{[2-({[(2,6-dimethylphenyl)amino]carbonyl}amino)-4,5,6,7-tetrahydro-1-benzothien-3-yl]carbonyl}-L-isoleucine]	13.9 µM
CC[C@H](C)[C@H](NC(=O)c1c(NC(=O)Nc2c(C)cc(C)cc2C)sc2c1CCCC2)C(=O)O [Example 127, N-[(2-{[(mesitylamino)carbonyl]amino}-4,5,6,7-tetrahydro-1-benzothien-3-yl)carbonyl]-L-isoleucine]	18.2 µM
CC[C@H](C)[C@H](NC(=O)c1c(NC(=O)Nc2c(C)cccc2Cl)sc2c1CCCC2)C(=O)O [Example 128, N-{[2-({[(2-chloro-6-methylphenyl)amino]carbonyl}amino)-4,5,6,7-tetrahydro-1-benzothien-3-yl]carbonyl}-L-isoleucine]	14.8 µM
CC[C@H](C)[C@H](NC(=O)c1c(NC(=O)Nc2c(Cl)cccc2Cl)sc2c1CCCC2)C(=O)O [Example 129, N-{[2-({[(2,6-dichlorophenyl)amino]carbonyl}amino)-4,5,6,7-tetrahydro-1-benzothien-3-yl]carbonyl}-L-isoleucine]	7.97 µM
Cc1cccc(Cl)c1NC(=O)Nc1sc2c(c1C(=O)N[C@@H](CC(C)C)C(=O)O)CCCC2 [Example 130, N-{[2-({[(2-chloro-6-methylphenyl)amino]carbonyl}amino)-4,5,6,7-tetrahydro-1-benzothien-3-yl]carbonyl}-L-leucine]	18 µM
CC(C)C[C@H](NC(=O)c1c(NC(=O)Nc2c(Cl)cccc2Cl)sc2c1CCCC2)C(=O)O [Example 131, N-{[2-({[(2,6-dichlorophenyl)amino]carbonyl}amino)-4,5,6,7-tetrahydro-1-benzothien-3-yl]carbonyl}-L-leucine]	9.96 µM
Cc1cccc(C)c1NC(=O)Nc1sc2c(c1C(=O)N[C@@H](CC(=O)O)C(=O)O)CCCC2 [Example 132, N-{[2-({[(2,6-dimethylphenyl)amino]carbonyl}amino)-4,5,6,7-tetrahydro-1-benzothien-3-yl]carbonyl}-L-aspartic acid]	5.25 µM
Cc1cc(C)c(NC(=O)Nc2sc3c(c2C(=O)N[C@@H](CC(=O)O)C(=O)O)CCCC3)c(C)c1 [Example 133, N-[(2-{[(mesitylamino)carbonyl]amino}-4,5,6,7-tetrahydro-1-benzothien-3-yl)carbonyl]-L-aspartic acid]	2.38 µM
Cc1cccc(Cl)c1NC(=O)Nc1sc2c(c1C(=O)N[C@@H](CC(=O)O)C(=O)O)CCCC2 [Example 134, N-{[2-({[(2-chloro-6-methylphenyl)amino]carbonyl}amino)-4,5,6,7-tetrahydro-1-benzothien-3-yl]carbonyl}-L-aspartic acid]	3.66 µM
Cc1cccc(C(C)C)c1NC(=O)Nc1sc2c(c1C(=O)N[C@@H](CC(=O)O)C(=O)O)CCCC2 [Example 135, N-{[2-({[(2-isopropyl-6-methylphenyl)amino]carbonyl}amino)-4,5,6,7-tetrahydro-1-benzothien-3-yl]carbonyl}-L-aspartic acid]	17.9 µM
CCc1cccc(CC)c1NC(=O)Nc1sc2c(c1C(=O)N[C@@H](CC(=O)O)C(=O)O)CCCC2 [Example 136, N-{[2-({[(2,6-diethylphenyl)amino]carbonyl}amino)-4,5,6,7-tetrahydro-1-benzothien-3-yl]carbonyl}-L-aspartic acid]	4.58 µM
O=C(O)C[C@H](NC(=O)c1c(NC(=O)Nc2c(Cl)cccc2Cl)sc2c1CCCC2)C(=O)O [Example 137, N-{[2-({[(2,6-dichlorophenyl)amino]carbonyl}amino)-4,5,6,7-tetrahydro-1-benzothien-3-yl]carbonyl}-L-aspartic acid]	4.15 µM
Cc1cccc(C)c1NC(=O)Nc1sc2c(c1C(=O)N[C@H](C(=O)O)C1CCCCC1)CCCC2 [Example 138, (2S)-cyclohexyl({[2-({[(2,6-dimethylphenyl)amino]carbonyl}amino)-4,5,6,7-tetrahydro-1-benzothien-3-yl]carbonyl}amino)acetic acid]	5.56 µM
